Test [1] relates to SKBR3 (PIK3CA WT) cells, pSer473 AKT. Kind of test: pS473 AKT assay in SKBR3 cells. In kind it is cell-based. Particulars: Homo sapiens, SK-BR-3, treated 2 h, read-out: SKBR3_IC50. The procedure:
(§1) SKBR3 (PIK3CA WT), MCF7 (PIK3CA E545K), and T47D (PIK3CA H1047R) cells were cultured using 10-cm petri dishes with recommended medium. One day before the assay, cells were seeded in 96-well plates. After overnight incubation, cells were treated with different concentrations of PI3Kα inhibitors for 2 h. Cells were then fixed using 4% paraformaldehyde at room temperature for 20 min. Cells were aspirated with 4% paraformaldehyde, and washed using 1× regular phosphate buffered saline 3 times, 5 min each. Any residual phosphate buffered saline was aspirated and cells were blocked using 10% goat serum containing 1% bovine serum albumin and 0.3% Triton X-100 at room temperature for 1 h. Without any additional washing, primary antibodies (rabbit anti-pSer473 AKT) were diluted using blocking buffer and added at a final volume of 50 microliter per well. Assay plates with primary antibodies were maintained overnight at 4° C. Cells were washed using 1× regular phosphate buffered saline 3 times, 5 min each. After the final wash, cells were incubated with horseradish peroxidase-conjugated secondary antibodies (goat Anti-rabbit IgG) and diluted using the same blocking buffer at room temperature for 1 h. Cells were then washed thoroughly using 1× regular phosphate buffered saline 3 times, 5 min each, and any residual phosphate buffered saline was aspirated. Super-Signal ELISA Pico Chemiluminescent Substrate was then added at a final volume of 100 microliter per well. Plates were read on a i3x Multi-Mode Microplate Reader and IC50 values calculated using GraphPad Prism software.
(§2) Results of the assay described above are presented in Table A. “++++” indicates an IC50 less than 1000 nM; “+++” indicates an IC50 greater than or equal to 1000 nM but less than 5000 nM; “++” indicates an IC50 greater than or equal to 5000 nM but less than 10000 nM; and “+” indicates an IC50 greater than or equal to 10000 nM.

The test system of test [2] is T47D (PIK3CA H1047R) cells, pSer473 AKT. Kind of test: pS473 AKT assay in T47D cells. In kind it is cell-based. Particulars: Homo sapiens, treated 2 h, read-out: T47D_IC50. The method, then:
as §1, §2

SMILES strings stand for the structures.

Regarding `Cn1nccc1-c1cc(NC(=O)c2cc(F)cc(C(F)(F)F)c2)c(Oc2cc(F)ccc2Cl)c2c(N)n[nH]c12` [Example 15, N-(3-Amino-4-(2-chloro-5-fluorophenoxy)-7-(1-methyl-1H-pyrazol-5-yl)-1H-indazol-5-yl)-3-fluoro-5-(trifluoromethyl)benzamide], the IC50 in test [1] and in test [2] was below 1000 nM throughout.
Consider `Cn1nc(NC(=O)CN)c2c(Oc3cc(F)ccc3Cl)c(NC(=O)c3cc(F)cc(C(F)(F)F)c3)cc(Cl)c21` [Example 35, N-(3-(2-Aminoacetamido)-7-chloro-4-(2-chloro-5-fluorophenoxy)-1-methyl-1H-indazol-5-yl)-3-fluoro-5-(trifluoromethyl)benzamide], for which the IC50 in test [1] is 1000 to 5000 nM; in test [2], below 1000 nM.
In the case of `Nc1n[nH]c2ccc(NC(=O)c3cc(F)cc(C(F)(F)F)c3)c(COc3cc(F)ccc3Cl)c12` [Example 6, N-(3-amino-4-((2-chloro-5-fluorophenoxy)methyl)-1H-indazol-5-yl)-3-fluoro-5-(trifluoromethyl)benzamide], the IC50 in test [1] was at least 10000 nM; in test [2], 1000 to 5000 nM.
`CNc1nn(C)c2c(Cl)cc(NC(=O)c3cc(F)cc(C(F)(F)F)c3)c(Oc3cc(F)ccc3Cl)c12` [Example 53, N-(7-chloro-4-(2-chloro-5-fluorophenoxy)-1-methyl-3-(methylamino)-1H-indazol-5-yl)-3-fluoro-5-(trifluoromethyl)benzamide]: the IC50 is at least 10000 nM in test [1] and below 1000 nM in test [2].
For `Nc1n[nH]c2c(Br)cc(NC(=O)c3cc(F)cc(C(F)(F)F)c3)c(Oc3cc(F)ccc3Cl)c12` [Example 11, N-(3-Amino-7-bromo-4-(2-chloro-5-fluorophenoxy)-1H-indazol-5-yl)-3-fluoro-5-(trifluoromethyl)benzamide] the same measures were below 1000 nM and below 1000 nM.
For `CS(=O)(=O)n1nc(N)c2c(Oc3cc(F)ccc3Cl)c(NC(=O)c3cc(F)cc(C(F)(F)F)c3)cc(Br)c21` [Example 81, N-(3-Amino-7-bromo-4-(2-chloro-5-fluorophenoxy)-1-(methylsulfonyl)-1H-indazol-5-yl)-3-fluoro-5-(trifluoromethyl)benzamide] the same measures were 1000 to 5000 nM and below 1000 nM.
For `Nc1n[nH]c2c(-c3cccnc3)cc(NC(=O)c3cc(F)cc(C(F)(F)F)c3)c(Oc3cc(F)ccc3Cl)c12` [Example 16, N-(3-Amino-4-(2-chloro-5-fluorophenoxy)-7-(pyridin-3-yl)-1H-indazol-5-yl)-3-fluoro-5-(trifluoromethyl)benzamide] the same measures were 1000 to 5000 nM and below 1000 nM.
Regarding `Cn1nc(N)c2c(Oc3cc(F)ccc3Cl)c(NC(=O)c3cc(F)cc(C(F)(F)F)c3)cc(CCc3ccccn3)c21` [Example 77, N-(3-Amino-4-(2-chloro-5-fluorophenoxy)-1-methyl-7-(2-(pyridin-2-yl)ethyl)-1H-indazol-5-yl)-3-fluoro-5-(trifluoromethyl)benzamide], the IC50 in test [1] was 1000 to 5000 nM; in test [2] it was below 1000 nM.
Regarding `Cn1nc(N)c2c(Oc3cc(F)ccc3Cl)c(NC(=O)c3cc(F)cc(C(F)(F)F)c3)cc(C#CC3CCOCC3)c21` [Example 38, N-(3-Amino-4-(2-chloro-5-fluorophenoxy)-1-methyl-7-((tetrahydro-2H-pyran-4-yl)ethynyl)-1H-indazol-5-yl)-3-fluoro-5-(trifluoromethyl)benzamide], the IC50 was 1000 to 5000 nM in test [1] and below 1000 nM in test [2].
Consider `Cn1nc(N)c2c(Oc3cc(F)ccc3Cl)c(NC(=O)c3cc(F)cc(C(F)(F)F)c3)cc(/C=C/C#N)c21` [Example 57, (E)-N-(3-amino-4-(2-chloro-5-fluorophenoxy)-7-(2-cyanovinyl)-1-methyl-1H-indazol-5-yl)-3-fluoro-5-(trifluoromethyl)benzamide], for which the IC50 in test [1] and in test [2] was below 1000 nM in each case.
Consider `Nc1nn2c(=O)c3ccccc3c3cc(NC(=O)c4cc(F)cc(C(F)(F)F)c4)c(Oc4cc(F)ccc4Cl)c1c32` [Example 73, N-(4-Amino-3-(2-chloro-5-fluorophenoxy)-7-oxo-7H-pyrazolo[4,5,1-de]phenanthridin-2-yl)-3-fluoro-5-(trifluoromethyl)benzamide], for which the IC50 in test [1] and in test [2] was below 1000 nM each time.
As for `CN1Cc2cc(NC(=O)c3cc(F)cc(C(F)(F)F)c3)c(Oc3cc(F)ccc3Cl)c3c(N)nn(c23)C1=O` [Example 69, N-(2-Amino-3-(2-chloro-5-fluorophenoxy)-7-methyl-8-oxo-7,8-dihydro-6H-pyrazolo[4,5,1-ij]quinazolin-4-yl)-3-fluoro-5-(trifluoromethyl)benzamide], the IC50 in test [1] and in test [2] was below 1000 nM each time.
For the molecule `Cn1nc(N)c2c(Oc3cc(F)ccc3Cl)c(NC(=O)c3cc(F)cc(C(F)(F)F)c3)cc(/C=C/c3ccccn3)c21` [Example 76, (E)-N-(3-Amino-4-(2-chloro-5-fluorophenoxy)-1-methyl-7-(2-(pyridin-2-yl)vinyl)-1H-indazol-5-yl)-3-fluoro-5-(trifluoromethyl)benzamide], the IC50 in test [1] is 5000 to 10000 nM; in test [2] it was below 1000 nM.
As for `C#Cc1cc(NC(=O)c2cc(F)cc(C(F)(F)F)c2)c(Oc2cc(F)ccc2Cl)c2c(N)nn(C)c12` [Example 47, N-(3-Amino-4-(2-chloro-5-fluorophenoxy)-7-ethynyl-1-methyl-1H-indazol-5-yl)-3-fluoro-5-(trifluoromethyl)benzamide], the values for the IC50 in test [1] and in test [2] were 1000 to 5000 nM and below 1000 nM, respectively.
As for `Cn1nc(N)c2c(Oc3cc(F)ccc3Cl)c(NC(=O)c3cc(F)cc(C(F)(F)F)c3)cc(C#CC(C)(C)O)c21` [Example 39, N-(3-Amino-4-(2-chloro-5-fluorophenoxy)-7-(3-hydroxy-3-methylbut-1-yn-1-yl)-1-methyl-1H-indazol-5-yl)-3-fluoro-5-(trifluoromethyl)benzamide], the IC50 in test [1] was 1000 to 5000 nM; in test [2], below 1000 nM.
Consider `Cn1cc(-c2cc(NC(=O)c3cc(F)cc(C(F)(F)F)c3)c(Oc3cc(F)ccc3Cl)c3c(N)n[nH]c23)cn1` [Example 14, N-(3-Amino-4-(2-chloro-5-fluorophenoxy)-7-(1-methyl-1H-pyrazol-4-yl)-1H-indazol-5-yl)-3-fluoro-5-(trifluoromethyl)benzamide], for which the IC50 in test [1] is 1000 to 5000 nM; in test [2] it was below 1000 nM.
With `Cn1nc(N)c2c(Oc3cc(F)ccc3Cl)c(NC(=O)c3cc(F)cc(C(F)(F)F)c3)cc(C#CC3(C)COC3)c21` [Example 46, N-(3-Amino-4-(2-chloro-5-fluorophenoxy)-1-methyl-7-((3-methyloxetan-3-yl)ethynyl)-1H-indazol-5-yl)-3-fluoro-5-(trifluoromethyl)benzamide], the IC50 in test [1] was 1000 to 5000 nM; in test [2], below 1000 nM.
Take `Cn1nc(N)c2c(Oc3cc(F)ccc3Cl)c(NC(=O)c3cc(F)cc(C(F)(F)F)c3)cc(/C=C\C#N)c21` [Example 58, (Z)—N-(3-amino-4-(2-chloro-5-fluorophenoxy)-7-(2-cyanovinyl)-1-methyl-1H-indazol-5-yl)-3-fluoro-5-(trifluoromethyl)benzamide]: the IC50 in test [1] and in test [2] was below 1000 nM each time.
As to `Nc1n[nH]c2ccc(NC(=O)c3cc(F)cc(C(F)(F)F)c3)c(Oc3cncc(Cl)c3)c12` [Example 3, N-(3-Amino-4-((5-chloropyridin-3-yl)oxy)-1H-indazol-5-yl)-3-fluoro-5-(trifluoromethyl)benzamide], the IC50 is at least 10000 nM in test [1] and below 1000 nM in test [2].

For the origin of these results see patent US20260250251A1, “HETEROCYCLIC COMPOUNDS AS PI3Ka INHIBITORS” (Pikavation Therapeutics, Inc., priority 2022, published 2026).
